For one series, the system named is cell. The note with it: cited from earlier work.
The subject of another series is Bcl-2 and Bcl XL. To be noted: literature value, cited from earlier work.
Series [1] relates to HL60, human leukemic cells expressing high Bcl-2 and low Bcl-XL levels. Nature of the series: Acute cytotoxicity (apoptotic activity), Alamar Blue viability, HL-60 cells. The class given is cell-based. The note with it: Homo sapiens, HL-60, 4 h; read-out: LC 50 (μM) HL-60. The method, then: (§1) The biological activity of the compounds provided herein were assessed in cellular system by the method similar to the one described by Amundson et al. (Amundson, S. A. et al, Cancer Research 2000, 60, 6101-6110), which is incorporated herein by reference in its entirety. The compounds were tested for acute cytotoxicity (apoptotic activity) using two human cancer cell lines expressing high levels of either Bcl-2 or BCl-XL. HL60, human leukemic cells expressing high Bcl-2 and low BCl-XL levels, and A549 human lung cells expressing low Bcl-2 and high BCl-XL levels, were incubated with the compounds at concentrations between 0.5 and 1000 μg/mL for 4 hours at 37° C., 5% CO2. The number of viable cells were measured by mitochondrial transformation of Alamar Blue to a fluorescent dye. LC50 values for each test compound and controls are provided in the individual examples that follow.
(§2) The compounds provided herein were tested for acute cytoxicity (apoptotic activity) using two human cancer cell lines expressing high levels of either Bcl-2 or BCl-XL. HL-60 cells expressing high Bcl-2 and low Bcl-XL levels, and A549 human lung cells expressing low Bcl-2 and high Bcl-XL levels were incubated with the compounds provided herein at concentrations between 0.5 and 1000 μg/mL for 4 hours at 37° C., 5% CO2. The number of viable cells were measured by mitochondrial transformation of Alamar Blue to a fluorescent dye. As negative controls, the compounds were tested against the cell lines with low levels of Bcl-2 expression, viz., MDA-453 cells. LC50 values for each compound and controls were determined.
For orientation: The colour change of resazurin is a common sign of viable cells or microbes.

Series [2] deals with A549 human lung cells expressing low Bcl-2 and high Bcl-XL levels. Nature of the series: Acute cytotoxicity (apoptotic activity), Alamar Blue viability, A549 cells. It is filed as cell-based. The note with it: Homo sapiens, A549, 4 h; read-out: LC 50 (μM) A549. The method, then: as §1, §2

Structures are written as SMILES. pIC50: −log10 of the molar value. Where two headings read alike, the source gives them in different places.

As to `Cc1cc2c(C(C)C)c(O)c(O)c(C=O)c2c(O)c1-c1c(C)cc2c(C(C)C)c(O)c(O)c(C=O)c2c1O` [compound 1], the CC50 in the series on cell is 1.5 µM.

Turning to `CCCC[C@H]1C(=O)O[C@H](C)[C@H](NC(=O)c2cccc(NC=O)c2O)C(=O)O[C@@H](C)[C@@H]1OC(=O)CC(C)C` [compound 2], in the series with cell, the CC50 is 1.2 µM.

The term pIC50 denotes −log10 of the IC50, conventionally taken in molar units. On to `O=C(Nc1cc(S(=O)(=O)c2ccc(Cl)cc2)ccc1Cl)c1cc(Cl)cc(I)c1O` [compound 6, reference compound], for which the CC50 with cell (read-out: LC50 (cell), cell line not specified, literature value) is roughly 30 µM; in series [1], less than 50 µM; in series [2], greater than 200 µM. Besides, in the series on Bcl-2 and Bcl XL (protein not specified), the pIC50 is 5.48.

Take `CC(C)Cc1cc(-c2ccc(-c3ccc(OCC(=O)O)c(CC(C)C)c3)c(Cc3cccc4ccccc34)c2)ccc1CCC(=O)O` [compound 7]: the pIC50 in the series on Bcl-2 and Bcl XL (Bcl-2 antagonist) is 6.94.

For `Nc1ccc(S(=O)(=O)c2ccc(S(=O)(=O)C3CCCCC3)[n+]([O-])n2)cc1` [compound 55], the CC50 was less than 50 µM in series [1] and greater than 200 µM in series [2].

In the case of `CC(=O)NCCS(=O)(=O)c1ccc(S(=O)(=O)C2CCCCC2)[n+]([O-])n1` [compound 56], the CC50 in series [1] and in series [2] was greater than 200 µM each time.

For the compound `O=C(O)c1ccc(S(=O)(=O)c2ccc(S(=O)(=O)C3CCCCC3)[n+]([O-])n2)cc1` [compound 57], the CC50 in series [1] and in series [2] was greater than 200 µM throughout.

Turning to `CS(=O)(=O)Nc1ccc(S(=O)(=O)c2ccc(S(=O)(=O)C3CCCCC3)[n+]([O-])n2)cc1` [compound 58], the CC50 in series [1] and in series [2] was greater than 200 µM throughout.

Turning to `COC(=O)c1ccc(S(=O)(=O)c2ccc(S(=O)(=O)C3CCCCC3)[n+]([O-])n2)cc1` [compound 59], the CC50 in series [1] is less than 50 µM; in series [2], greater than 200 µM.

Take `O=S(=O)(c1ccncc1)c1ccc(S(=O)(=O)C2CCCCC2)[n+]([O-])n1` [compound 60]: the figures for the CC50 in series [1] and in series [2] were 50 to 200 µM and greater than 200 µM, respectively.

As to `O=S(=O)(c1ccc(-c2ccccc2)n[n+]1[O-])C1CCCCC1` [compound 61], the CC50 in series [1] and in series [2] was greater than 200 µM in each case.

(Values after US20040242886A1, “Monocyclic diazodioxide based Bcl-2 protein antagonists related applications” (priority 2003, published 2004).)
